Measured values taken from US8487098B2, “Synergistic combination of flumetsulam or diclosulam with isothiazolones” (Dow Global Technologies LLC, priority 2010, dated 2013).

Legend:
Type in all cases: cell-based
Settings in all cases: 4 weeks; for % inhibition: at the total conc given; for Total conc, ppm: minimum inhibitory concentration in paint
[1] = tested on: Alternaria alternata mixed with Trichoderma viride (AaTv); test: Fungal efficacy testing, modified ASTM 5590, paint film
Procedure: (§1) A single or blend of biocides was post added into white acrylic latex paint free of biocides to give a maximum total active ingredient/s concentration tested. This paint was then diluted with a biocide free acrylic latex paint to give targeted concentrations for the testing. Depending on the type of biocide blends tested, the total biocides concentrations varies from 200 to 5000 ppm. After biocides addition or dilution, each sample was hand mixed for at least a minute until uniformity is achieved. Each of the paint samples as well as a control sample (containing no biocide) were used to prepare films on black plastic-vinyl chloride/acetate copolymer panels (LENETA, Mahwah, N.J.) using a 3 mil (0.0762 mm) bird bar applicator. The panels were thoroughly dried for at least 2 days avoiding direct exposure to sunlight. Square discs (0.5 inch; 1.27 cm^2) were cut out from each panel and were used as the substrate for fungal and algal efficacy tests. This sample size allowed for an agar border when the sample disc was placed into the well of the test plate. Each sample was tested in duplicate
(§2) The appropriate media (BOLD'S 3N for Chlorophytes, BG-11 for Cyanobacteria, and PDA for fungi) were used to support microbial growth. The test plates were maintained at room temp (25° C.-26° C.), in a cycled light-dark environment, for four weeks for algae. Plates for fungal challenge tests were maintained at 30 C for four weeks. At the end of the incubation period the samples were scored for percent area covered by visible microbial growth.
(§3) Fungal Efficacy Testing—Modified ASTM 5590
(§4) ASTM 5590 is a standard accelerated test method for determining resistance of various coatings (including paints) to fungal defacement. To accommodate for high-throughput screening, this method was scaled down from petri plates to 6-well plates. To set up the test, an agar plug was placed at the bottom of each well of the sterile 6-well plate. A single coupon was placed with a pair of sterile forceps at the center of the agar plug (on top) with the painted surface facing upwards. Fungal inoculums were prepared by mixing equal concentrations (1×10^6 cfu/ml) and equal volumes (depending on number of samples to be tested) of like growing organisms. For Flumetsulam+various IT synergy study, three pools of mixed fungi were prepared as the test inoculum. Cladosporium herbarum was mixed with Aureobasidium pullulans; Aspergillus niger was mixed with Penicillium funiculosum and Alternaria alternata was mixed with Trichoderma viride. For Diclosulam+various IT synergy study, all above fungi were mixed as a single pool. Each well was inoculated with 400 μl of organism mixture (1×10^6 cfu/ml) making sure that the whole surface (paint film as well as the agar surrounding it) was evenly covered. The plates were incubated at 30° C. in presence of moisture, for a period of four weeks. The total percent area covered was evaluated and recorded at the end of each week after the 2nd week and recorded in increments of 5%.
(§5) Synergy Index Calculation
(§6) The SI is calculated based on F. C. Kull et.
(§7) Qa=the concentration of Biocide A in the blend
(§8) QA=The concentration of Biocide A as the only biocide
(§9) Qb=The concentration of Biocide B in the blend
(§10) QB=The concentration of Biocide B as the only biocide
(§11) SI value of <1 in the formula indicates a synergism of the blended biocides exists.
(§12) NE=no end point at the concentration tested that will meet the percent inhibition criteria set in each SI calculation

[2] = tested on: Aspergillus niger mixed with Penicillium funiculosum (AnPf); test: as above
Procedure: as §1, §2, §3, §4, §5, §6, §7, §8, §9, §10, §11, §12

[3] = tested on: Cladosporium herbarum mixed with Aureobasidium pullulans (ApCh); test: as above
Procedure: as §1, §2, §3, §4, §5, §6, §7, §8, §9, §10, §11, §12

[4] = tested on: Chlorella sp., Chlorella kessleri, and Nostoc commune (Cs + Ck + Nc); test: Algal efficacy testing, modified ASTM 5589, paint film
Procedure: as §1, §2
(§13) Algal Efficacy Testing—Modified ASTM 5589
(§14) ASTM 5589 is a standard accelerated test method for determining resistance of various coatings (including paints) to algal defacement. To accommodate for high-throughput screening, this method was scaled down from petri plates to 6-well plates. A single coupon was placed with a pair of sterile forceps at the center of the agar plug (on top) with the painted surface facing upwards. Algal inoculums were prepared by mixing equal concentrations (1×10^6 cfu/ml) and equal volumes (depending on number of samples to be inoculated) of like growing organisms.
(§15) In Flumetsulam+various IT synergy study, three pool of mixed algae were prepared as the test inoculum, Gloeocapsa sp. and Oscillatoria sp. a mix of cyanobacteria grown on BG-11 media; Chlorella sp., Chlorella kessleri, and Nostoc commune are unicellular chlorphytes that were mixed and grown on Bold media; Trentepohlia aurea, Tretepohlia odorata, and Calotrix parientina are filamentous algae that were mixed and grown on Bold media.
(§16) Each well that contains a tested coupon was inoculated with 400 μl of organism mixture (1×10^6 cfu/ml) making sure that the whole surface (paint film as well as the agar surrounding it) was evenly covered. The plates were incubated at room temp (25° C.-26° C.) with cyclic exposure to light (OTT-Lite model #OTL4012P, 40 Watt, 26 KLumen) and dark phases, for a period of four weeks. The total area covered was evaluated at the end of each week according to percent area covered in 5% increments.
as §5, §6, §7, §8, §9, §10, §11, §12

[5] = tested on: Trentepohlia aurea, Tretepohlia odorata, and Calotrix parientina (Cp + To + Ta); test: as above
Procedure: as §1, §2, §13, §14, §15, §16, §5, §6, §7, §8, §9, §10, §11, §12

[6] = tested on: Gloeocapsa sp. and Oscillatoria sp. (Gs + Os); test: as above
Procedure: as §1, §2, §13, §14, §15
(§17) In Diclosulam+various IT synergy study, only two pools of mixed algae were prepared; Gloeocapsa sp. and Oscillatoria sp. grown on BG-11 media and Chlorella sp., Chlorella kessleri, Nostoc commune, Trentepohlia aurea, Tretepohlia odorata, and Calotrix parientina grown on Bold media
as §16, §5, §6, §7, §8, §9, §10, §11, §12

[7] = tested on: Aa + Tv + An + Pf + Ap + Ch; test: Fungal efficacy testing, modified ASTM 5590, paint film, single pool of all fungi
Procedure: as §1, §2, §3, §4, §5, §6, §7, §8, §9, §10, §11, §12

[8] = tested on: Cp + To + Ta + Cs + Ck + Nc; test: Algal efficacy testing, modified ASTM 5589, paint film, pool grown on Bold media
Procedure: as §1, §2, §13, §14, §17, §16, §5, §6, §7, §8, §9, §10, §11, §12

[9] = Flumetsulam:BBIT synergy study, NE=no end point
[10] = Flumetsulam:DCOIT synergy study
[11] = Synergy study of Diclosulam and DCOIT
[12] = Synergy study of Diclosulam+OIT

In the case of `Cc1ccn2nc(S(=O)(=O)Nc3c(F)cccc3F)nc2n1` [Flumetsulam, N-(2,6-difluorophenyl)-5-methyl[1,2,4]triazolo[1,5-a]pyrimidine-2-sulfonamide], the “% inhibition” value ([1]; Flumetsulam:BBIT synergy study) was 0%, the “Total conc, ppm” value [1, 9] was 3500 ppm and the “% inhibition” value [1, 10] was 0%. The “Total conc, ppm” value [1, 10] was 3500 ppm, the “% inhibition” value ([1]; Flumetsulam:OIT synergy study) was 0% and the “Total conc, ppm” value ([1]; Flumetsulam:OIT synergy study) was 3500 ppm. For the same compound, the “% inhibition” value ([2]; Flumetsulam:BBIT synergy study) was 0%, the “Total conc, ppm” value ([2]; Flumetsulam:BBIT synergy study) was 3500 ppm and the “% inhibition” value [2, 10] was 0%. The “Total conc, ppm” value [2, 10] was 3500 ppm, the “% inhibition” value ([2]; Flumetsulam:OIT synergy study) was 65% and the “Total conc, ppm” value ([2]; Flumetsulam:OIT synergy study) was 3500 ppm. The “% inhibition” value ([3]; Flumetsulam:BBIT synergy study) was 0%, the “Total conc, ppm” value [3, 9] was 3500 ppm and the “% inhibition” value [3, 10] was 90%. The “Total conc, ppm” value [3, 10] was 3500 ppm, the “% inhibition” value ([3]; Flumetsulam:OIT synergy study) was 0% and the “Total conc, ppm” value ([3]; Flumetsulam:OIT synergy study) was 3500 ppm. The “% inhibition” value ([4]; Flumetsulam:BBIT synergy study) was 0%, the “Total conc, ppm” value ([4]; Flumetsulam:BBIT synergy study) was 3500 ppm and the “% inhibition” value [4, 10] was 100%. The “Total conc, ppm” value [4, 10] was 1750 ppm, the “% inhibition” value ([4]; Flumetsulam:OIT synergy study) was 65% and the “Total conc, ppm” value ([4]; Flumetsulam:OIT synergy study) was 2625 ppm. The “% inhibition” value ([5]; Flumetsulam:BBIT synergy study) was 0%, the “Total conc, ppm” value [5, 9] was 3500 ppm and the “% inhibition” value [5, 10] was 95%. The “Total conc, ppm” value [5, 10] was 437.5 ppm, the “% inhibition” value ([5]; Flumetsulam:OIT synergy study) was 60% and the “Total conc, ppm” value ([5]; Flumetsulam:OIT synergy study) was 437.5 ppm. The “% inhibition” value ([6]; Flumetsulam:BBIT synergy study) was 0%, the “Total conc, ppm” value ([6]; Flumetsulam:BBIT synergy study) was 3500 ppm and the “% inhibition” value [6, 10] was 100%. For the same compound, the “Total conc, ppm” value [6, 10] was 2625 ppm, the “% inhibition” value ([6]; Flumetsulam:OIT synergy study) was 90% and the “Total conc, ppm” value ([6]; Flumetsulam:OIT synergy study) was 437.5 ppm.

`CCCCn1sc2ccccc2c1=O` [BBIT, N-n-butyl-1,2-benzisothiazolin-3-one] was tested, and the “% inhibition” value ([1]; Flumetsulam:BBIT synergy study) was 0%, the “Total conc, ppm” value [1, 9] was 1150 ppm and the “% inhibition” value ([2]; Flumetsulam:BBIT synergy study) was 0%. The “Total conc, ppm” value ([2]; Flumetsulam:BBIT synergy study) was 1150 ppm, the “% inhibition” value ([3]; Flumetsulam:BBIT synergy study) was 80% and the “Total conc, ppm” value [3, 9] was 575 ppm. For the same compound, the “% inhibition” value ([4]; Flumetsulam:BBIT synergy study) was 0%, the “Total conc, ppm” value ([4]; Flumetsulam:BBIT synergy study) was 1150 ppm and the “% inhibition” value ([5]; Flumetsulam:BBIT synergy study) was 0%. For the same compound, the “Total conc, ppm” value [5, 9] was 1150 ppm, the “% inhibition” value ([6]; Flumetsulam:BBIT synergy study) was 0% and the “Total conc, ppm” value ([6]; Flumetsulam:BBIT synergy study) was 1150 ppm.

`CCCCCCCCn1sc(Cl)c(Cl)c1=O` [DCOIT, 4,5-dichloro-2-n-octyl-4-isothiazolin-3-one] was tested, and the “% inhibition” value [1, 10] was 85%, the “Total conc, ppm” value [1, 10] was 575 ppm and the “% inhibition” value [2, 10] was 100%. For the same compound, the “Total conc, ppm” value [2, 10] was 575 ppm, the “% inhibition” value [3, 10] was 100% and the “Total conc, ppm” value [3, 10] was 862.5 ppm. For the same compound, the “% inhibition” value [4, 10] was 100%, the “Total conc, ppm” value [4, 10] was 1150 ppm and the “% inhibition” value [5, 10] was 100%. The “Total conc, ppm” value [5, 10] was 143.75 ppm, the “% inhibition” value [6, 10] was 100% and the “Total conc, ppm” value [6, 10] was 143.75 ppm. The “% inhibition” value [6, 11] was 100%, the “Total conc, ppm” value [6, 11] was 625 ppm and the “% inhibition” value [7, 11] was 80%. For the same compound, the “Total conc, ppm” value [7, 11] was 625 ppm, the “% inhibition” value [8, 11] was 100% and the “Total conc, ppm” value [8, 11] was 625 ppm.

With `CCOc1nc(F)cc2nc(S(=O)(=O)Nc3c(Cl)cccc3Cl)nn12` [Diclosulam, N-(2,6-dichlorophenyl)-5-ethoxy-7-fluoro[1,2,4]triazolo[1,5-c]pyrimidine-2-sulfonamide] the “% inhibition” value [6, 11] was 100%, the “Total conc, ppm” value [6, 11] was 437.5 ppm and the “% inhibition” value [6, 12] was 100%. For the same compound, the “Total conc, ppm” value [6, 12] was 437.5 ppm, the “% inhibition” value [7, 11] was 40% and the “Total conc, ppm” value [7, 11] was 3500 ppm. For the same compound, the “% inhibition” value [7, 12] was 0%, the “Total conc, ppm” value [7, 12] was 3500 ppm and the “% inhibition” value [8, 11] was 100%. The “Total conc, ppm” value [8, 11] was 437.5 ppm, the “% inhibition” value [8, 12] was 100% and the “Total conc, ppm” value [8, 12] was 437.5 ppm.

With `CCCCCCCCn1sccc1=O` [OIT, 2-n-octyl-4-isothiazolin-3-one] the “% inhibition” value ([1]; Flumetsulam:OIT synergy study) was 100%, the “Total conc, ppm” value ([1]; Flumetsulam:OIT synergy study) was 900 ppm and the “% inhibition” value ([2]; Flumetsulam:OIT synergy study) was 100%. For the same compound, the “Total conc, ppm” value ([2]; Flumetsulam:OIT synergy study) was 450 ppm, the “% inhibition” value ([3]; Flumetsulam:OIT synergy study) was 80% and the “Total conc, ppm” value ([3]; Flumetsulam:OIT synergy study) was 900 ppm. The “% inhibition” value ([4]; Flumetsulam:OIT synergy study) was 100%, the “Total conc, ppm” value ([4]; Flumetsulam:OIT synergy study) was 450 ppm and the “% inhibition” value ([5]; Flumetsulam:OIT synergy study) was 100%. For the same compound, the “Total conc, ppm” value ([5]; Flumetsulam:OIT synergy study) was 450 ppm, the “% inhibition” value ([6]; Flumetsulam:OIT synergy study) was 100% and the “Total conc, ppm” value ([6]; Flumetsulam:OIT synergy study) was 450 ppm. The “% inhibition” value [6, 12] was 100%, the “Total conc, ppm” value [6, 12] was 900 ppm and the “% inhibition” value [7, 12] was 100%. For the same compound, the “Total conc, ppm” value [7, 12] was 450 ppm, the “% inhibition” value [8, 12] was 100% and the “Total conc, ppm” value [8, 12] was 900 ppm.
